Target: TrkA (tropomyosin receptor kinase A) (Homo sapiens, UniProt P04629)
Experiment: TR-FRET
Type: biochemical

Sequence of TrkA (tropomyosin receptor kinase A) (P04629 441-796 limits assumed): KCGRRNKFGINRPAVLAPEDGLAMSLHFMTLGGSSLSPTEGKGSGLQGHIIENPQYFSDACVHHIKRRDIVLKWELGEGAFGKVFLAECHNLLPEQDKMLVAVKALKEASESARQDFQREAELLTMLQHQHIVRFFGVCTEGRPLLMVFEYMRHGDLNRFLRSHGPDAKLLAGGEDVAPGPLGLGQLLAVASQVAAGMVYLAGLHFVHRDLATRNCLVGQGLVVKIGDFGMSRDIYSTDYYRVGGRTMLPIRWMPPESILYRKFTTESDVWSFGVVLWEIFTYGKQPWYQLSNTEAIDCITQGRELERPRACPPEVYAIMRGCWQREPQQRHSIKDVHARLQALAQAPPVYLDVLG

Nc1ncc(-c2cnn(C3CCNCC3)c2)cc1-c1nc2ccccc2o1 [KRC-108, 3-(benzo[d]oxazol-2-yl)-5-(1-(piperidin-4-yl)-1H-pyrazol-4-yl)pyridin-2-amine]
IC50: 43.3 nM

— PMC9252884 (Biomolecules & Therapeutics, 2022)
